Measured values as given in ChEMBL document CHEMBL5325443, “Discovery and structure-activity relationship of Morita-Baylis-Hillman adducts as larvicides against dengue mosquito vector, Aedes aegypti (Diptera: Culicidae)” (2023).
In brackets after ≈: the same amount, converted by molar mass. Activity calls are given as the source filed them. The calls are words filed in the database; no cut-off is given here.

Assays:
Aedes aegypti [1] = test: Larvicidal activity against fourth instar Aedes aegypti larvae assessed as lethal concentration measured after 48 hrs; assay type: functional
Aedes aegypti [2] = test: Larvicidal activity against fourth instar Aedes aegypti larvae assessed as mortality rate at 100 ug/ml measured after 48 hrs relative to control; assay type: functional
Aedes aegypti [3] = test: Induction of morphological changes in fourth instar Aedes aegypti larvae assessed as loss in anal papillae at LC50 concentration measured after 48 hrs by scanning electron microscopic analysis; assay type: functional, organism-based
Aedes aegypti [4] = test: Induction of morphological changes in fourth instar Aedes aegypti larvae assessed as damage in thorax at LC50 concentration measured after 48 hrs by scanning electron microscopic analysis; assay type: functional
Aedes aegypti [5] = test: Induction of morphological changes in fourth instar Aedes aegypti larvae assessed as modification in terminal abdomen in 6th to 8th segment at LC50 concentration measured after 48 hrs by scanning electron microscopic analysis; assay type: functional, organism-based

Row | SMILES | LC50 (Aedes aegypti [1]) | mortality at 100 µg/mL (Aedes aegypti [2]) | also measured
1 | CC[C@H]1CCC[C@H](O[C@H]2CC[C@H](N(C)C)[C@@H](C)O2)[C@@H](C)C(=O)C2=C[C@@H]3[C@@H](C=C(C)[C@@H]4C[C@@H](O[C@@H]5O[C@@H](C)[C@H](OC)[C@@H](OC)[C@H]5OC)C[C@@H]34)[C@@H]2CC(=O)O1 [SPINOSYN D] | 0.02 µg/mL (≈ 0.0268 µM) | – | –
2 | CC(COc1ccc(Oc2ccccc2)cc1)Oc1ccccn1 (stereo not given) [PYRIPROXYFEN] | 1.75 µg/mL (≈ 5.45 µM) | – | –
3 | CC[C@H]1CCC[C@H](O[C@H]2CC[C@H](NC)[C@@H](C)O2)[C@@H](C)C(=O)C2=C[C@@H]3[C@@H](C=C[C@@H]4C[C@@H](O[C@@H]5O[C@@H](C)[C@H](OC)[C@@H](OC)[C@H]5OC)C[C@@H]34)[C@@H]2CC(=O)O1 | 0.02 µg/mL (≈ 0.0279 µM) | – | –
4 | C=C(C(=O)OCC)C(O)c1ccc([N+](=O)[O-])cc1 (stereo not given) | – | 16.7% | –
5 | C=C(C(=O)OC)C(O)c1ccc(Br)cc1 (stereo not given) | – | 51.7% | –
6 | C=C(C(=O)OC)C(O)c1ccc(F)cc1 (stereo not given) | – | 16.7% | –
7 | COP(=S)(OC)Oc1ccc(Sc2ccc(OP(=S)(OC)OC)cc2)cc1 [TEMEFOS] | 4.25 µg/mL (≈ 9.11 µM) | – | –
8 | C=C(C(=O)OC)C(O)c1ccccc1Cl (stereo not given) | – | 21.7% | –
9 | C=C(C(=O)OC)C(O)c1ccc(Cl)cc1 (stereo not given) | 88.2 µg/mL (≈ 389 µM) | 81.7% | –
10 | C=C(C(=O)OCC)C(O)c1ccccc1Cl (stereo not given) | 86.7 µg/mL (≈ 360 µM) | 85% | –
11 | CC[C@H]1CCC[C@H](O[C@H]2CC[C@H](N(C)C)[C@@H](C)O2)[C@@H](C)C(=O)C2=C[C@@H]3[C@@H](C=C[C@@H]4C[C@@H](O[C@@H]5O[C@@H](C)[C@H](OC)[C@@H](OC)[C@H]5OC)C[C@@H]34)[C@@H]2CC(=O)O1 [SPINOSYN A] | 0.02 µg/mL (≈ 0.0273 µM) | – | –
12 | C=C(C(=O)OC)C(O)c1cc(OC)c(OC)c(OC)c1 (stereo not given) | – | 16.7% | –
13 | C=C(C(=O)OCC)C(O)c1ccc(OC)cc1 (stereo not given) | – | 21.7% | –
14 | C=C(C(=O)OC)C(O)c1ccc(C)cc1 (stereo not given) | – | 10% | –
15 | C=C(C(=O)OC)C(O)/C=C/c1ccccc1 (stereo not given) | – | 71.7% | –
16 | C=C(C(=O)OC)C(O)c1ccc(-c2ccccc2)cc1 (stereo not given) | 41.4 µg/mL (≈ 154 µM) | 93.3% | Activity (Aedes aegypti [3]): Active; Activity (Aedes aegypti [4]): 100%; Activity (Aedes aegypti [5]): Active
17 | C=C(C(=O)OCC)C(O)c1nccs1 (stereo not given) | – | 10% | –
18 | C=C(C(=O)OC)C(O)c1ccc2ccccc2c1 (stereo not given) | 77.7 µg/mL (≈ 321 µM) | 88.3% | –
